Like-named read-outs stand apart in the source and are kept apart here.
Columns and labels:
GRK6 = molecular target: T1, GRK6 (Homo sapiens, UniProt P43250, C561S/C562S/C565S/T10A); test: GRK6 kinase inhibition assay, phosphorylation of tubulin ([γ-32P]-ATP); type: biochemical; details: for Selectivity GRK5/GRK6: fold selectivity for GRK6 over GRK5; for IC50: phosphorylation of the soluble substrate tubulin, ± standard deviation from 3 to 4 independent experiments
T1 construct: His tag (inferred: purified by the GRK5 protocol, which starts with nickel-NTA); made in house; host or cells: Sf9 insect cells
Description: (§1) The inhibitory potency of synthetic compounds containing the N‐heterocyclic amide functionalities was evaluated against human GRK2, GRK5 and GRK6 using our in vitro assays‐, as reported previously.^[ [35], [37] ^] […] We then investigated the effect of (R)‐ and (S)‐Boc pyrrolidine carboxamide derivatives. […] These improvements of GRK5 IC50 values over their Boc‐derivatives (6c and 6d) indicated the bulky Boc group may not be able to fit as well in the catalytic site of these GRKs. On the other hand, sterically less demanding acetamide derivatives 6e and 6f were well accommodated consistent with their very good activity against GRK5, GRK6, and GRK2, but only with marginal selectivity against GRK2. […] We also examined the effect of 3(S)‐ and 3(R)‐Boc‐pyrrolidine derivatives.
(§2) Protein expression and purification.
(§3) Human GR K5 (residues 1- 590) w ild- type and D 311N mutant w ere expressed in E. co li Rosetta (D E3) and purified v ia nickel-nitrilotriacetic acid affinity chromatography, followed by tandem columns consisting of a HiTrap Q HP anion exchange chromatography column and a HiTrap SP HP cation exchange chromatography column, and finished by Superdex 200 Increase size -exclusion chromatography, as described previously. Human GRK6 (with T10A and mutations that eliminate palmitoylation sites) was expressed in Sf9 insect cells [ 2] and was purified w ith the same protocol for GR K5 [1]. Human GRK2 w as purified as described previously.
(§4) Kinase inhibition Assays.
(§5) Inhibit ion assays were conducted in a reaction mixture containing 20 mM H EPES pH 7. 0, 2 mM MgC l2, and 0.025% n- dodecyl-β-D-maltoside. Prior to reaction initiation, GR K5 or GR K6 at 50 nM was mixed w ith porcine brain tubulin ( PurSolutions) at a concentration of 500 nM. The assay w as started w ith a 30- second incubation of inhibitors, followed by the add it ion of 5 μ M ATP supplemented w ith radioactive [γ-32P]-AT P a t 60 C i/m mol (PerkinElm er Life Sciences). Re actions pro ceeded for 5 m inut es at ro o m te mpera ture a nd were terminated by adding 4X SDS loading buffer. T he reaction mixtures were then s eparated via SDS - PAG E, dried, and exposed using a phosphor imaging screen. Quantification was performed using a Personal Molecular Imager and Quantity One 1- D Analysis Software. Analogous inhibition assays were conducted on p urified GR K2 wit h a t ub ulin conce ntrat ion of 1 μ M. Data ana lysis was perf orme d usin g Graph Pa d Pr ism, and IC50 values wer e calculated based on three- parameter dose- dependent curves (with a Hill coefficient fixed at 1) plotting phosphate transfer against inhibitor concentration. At least three replicates were conducted to determine the mean and standard deviation of IC50 values as published previously . […]
(§6) (6) The final models w ere validated with MolProbity prior to depos ition along with structure factors in the Protein Data Bank. Atomic figures were created with Py mol (7). Cr ystallographic statistics are reported in Supplemental Table 1. Coordinates for inh ib itor 6t (GRL-098- 22) w ere deposited in the Protein Data Bank, with accession code 9BR K.
(§7) 1. Y. Chen, A. Sonawane, R. Manda, R. K. G adi, J. J. G. Tesmer, A. K. Ghosh. Development of a new class of potent and highly select ive G protein- coupled r eceptor kinase 5 inhibitors and structural insight from crystal structures of inhibitor complexes. Eur. J. Med. Chem. 2024, 264, 115931.
(§8) 2. D. T. Lodowski, V. M. T esmer, J. L. Benovic, J. J. Tesmer. The structure of G protein- coupled receptor kinase (GRK)-6 defines a second lineage of GRKs. J. Bio l. C he m. 2006, 281,16785- 16793.

GRK2 [1] = molecular target: T2, GRK2 (Homo sapiens, UniProt P25098); test: GRK2 kinase inhibition assay, phosphorylation of tubulin ([γ-32P]-ATP); type: biochemical; details: phosphorylation of the soluble substrate tubulin; ± standard deviation from 3 to 4 independent experiments
T2 construct: made in house
T2 sequence (P25098 1-689): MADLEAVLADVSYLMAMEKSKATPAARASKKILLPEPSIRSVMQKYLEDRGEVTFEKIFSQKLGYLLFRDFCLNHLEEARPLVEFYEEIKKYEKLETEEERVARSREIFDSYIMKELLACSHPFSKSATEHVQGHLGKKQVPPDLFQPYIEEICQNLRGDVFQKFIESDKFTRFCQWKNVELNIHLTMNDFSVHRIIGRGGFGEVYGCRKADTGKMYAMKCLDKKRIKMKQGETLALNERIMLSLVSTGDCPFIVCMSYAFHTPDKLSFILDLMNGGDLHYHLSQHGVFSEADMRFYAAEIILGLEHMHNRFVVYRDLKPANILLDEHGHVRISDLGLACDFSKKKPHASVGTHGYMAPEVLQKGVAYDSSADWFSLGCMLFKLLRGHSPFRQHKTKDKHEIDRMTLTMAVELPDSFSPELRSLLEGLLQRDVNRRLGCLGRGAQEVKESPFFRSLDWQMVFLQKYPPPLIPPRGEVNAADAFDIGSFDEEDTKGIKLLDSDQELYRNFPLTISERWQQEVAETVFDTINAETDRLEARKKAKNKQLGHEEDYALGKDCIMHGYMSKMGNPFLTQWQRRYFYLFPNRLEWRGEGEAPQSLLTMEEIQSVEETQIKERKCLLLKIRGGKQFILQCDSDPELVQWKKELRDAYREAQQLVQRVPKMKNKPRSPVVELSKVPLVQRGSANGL
Description: as §1, §2, §3, §4, §5, §6, §7, §8

GRK5 = molecular target: T3, GRK5 (Homo sapiens, UniProt P34947); test: GRK5 kinase inhibition assay, phosphorylation of tubulin ([γ-32P]-ATP); type: biochemical; details: for Selectivity GRK2/GRK5: fold selectivity for GRK5 over GRK2; for IC50: phosphorylation of the soluble substrate tubulin, ± standard deviation from 3 to 4 independent experiments
T3 construct: Human GR K5 (residues 1- 590) w ild- type and D 311N mutant w ere expressed in E. co li Rosetta; His tag (inferred from nickel-NTA purification); made in house; host or cells: E. coli Rosetta (DE3)
Description: as §1, §2, §3, §4, §5, §6, §7, §8

GRK2 [2] = molecular target: T2, GRK2; details: earlier work; cited from earlier work

T1 sequence (P43250 whole entry T10A/C561S/C562S/C565S): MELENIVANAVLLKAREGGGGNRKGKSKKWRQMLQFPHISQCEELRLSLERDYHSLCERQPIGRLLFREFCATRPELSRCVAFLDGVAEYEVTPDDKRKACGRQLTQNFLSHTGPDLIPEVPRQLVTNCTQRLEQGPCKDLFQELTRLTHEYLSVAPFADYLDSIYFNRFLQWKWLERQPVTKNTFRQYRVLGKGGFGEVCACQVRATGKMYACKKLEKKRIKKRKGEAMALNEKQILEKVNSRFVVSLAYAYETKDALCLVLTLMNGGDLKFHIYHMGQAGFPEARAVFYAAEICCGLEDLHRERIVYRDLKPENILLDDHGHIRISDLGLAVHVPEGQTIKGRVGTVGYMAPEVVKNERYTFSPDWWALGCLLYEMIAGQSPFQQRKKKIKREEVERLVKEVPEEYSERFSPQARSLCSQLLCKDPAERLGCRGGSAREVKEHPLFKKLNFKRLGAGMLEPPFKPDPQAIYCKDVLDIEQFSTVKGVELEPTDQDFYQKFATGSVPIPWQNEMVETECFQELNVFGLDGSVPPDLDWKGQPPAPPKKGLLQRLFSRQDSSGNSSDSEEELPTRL
T3 sequence (P34947 whole entry, the tested form may be a part): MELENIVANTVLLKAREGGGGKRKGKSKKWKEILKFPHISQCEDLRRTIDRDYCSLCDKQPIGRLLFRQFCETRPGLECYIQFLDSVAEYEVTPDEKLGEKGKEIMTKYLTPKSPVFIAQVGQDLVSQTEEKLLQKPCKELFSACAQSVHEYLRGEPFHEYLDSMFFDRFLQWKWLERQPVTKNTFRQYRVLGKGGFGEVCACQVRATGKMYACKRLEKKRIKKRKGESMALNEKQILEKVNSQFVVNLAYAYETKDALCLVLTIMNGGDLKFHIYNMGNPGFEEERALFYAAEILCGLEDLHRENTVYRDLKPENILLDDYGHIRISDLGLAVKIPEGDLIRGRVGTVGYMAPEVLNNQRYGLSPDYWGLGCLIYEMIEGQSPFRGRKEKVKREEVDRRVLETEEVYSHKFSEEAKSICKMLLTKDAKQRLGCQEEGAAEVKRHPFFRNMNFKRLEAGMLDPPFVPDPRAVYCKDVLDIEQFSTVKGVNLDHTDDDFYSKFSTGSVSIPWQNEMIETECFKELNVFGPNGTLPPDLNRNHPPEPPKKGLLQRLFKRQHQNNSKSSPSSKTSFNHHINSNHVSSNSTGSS

| SMILES | Selectivity GRK5/GRK6 (GRK6) | IC50 (GRK6) | IC50 (GRK2 [1]) | Selectivity GRK2/GRK5 (GRK5) | IC50 (GRK5) | selectivity over GRK2 (GRK5; GRK5 vs GRK2, as stated in text) | IC50 (GRK2 [2]) |
| --- | --- | --- | --- | --- | --- | --- | --- |
| Cc1[nH]c(/C=C2\C(=O)Nc3ccc(C(=O)N[C@H](C)c4ccc(F)cc4)cc32)c(C)c1NC(=O)[C@H]1CCN(C(=O)OC(C)(C)C)C1 [6l, Tert‐Butyl(S)‐3‐((5‐(((Z)‐5‐(((R)‐1‐(4‐Fluorophenyl)Ethyl)Carbamoyl)‐2‐Oxoindolin‐3‐Ylidene)Methyl)‐2,4‐Dimethyl‐1H‐Pyrrol‐3‐Yl)Carbamoyl)Pyrrolidine‐1‐Carboxylate] | 1 fold | 0.88 ± 0.05 µM | > 1000 µM | >1000 fold | 1 ± 0.6 µM |  |  |
| Cc1[nH]c(/C=C2\C(=O)Nc3ccc(C(=O)N[C@H](C)c4ccc(F)cc4)cc32)c(C)c1NC(=O)[C@H]1CCCCN1C(=O)OC(C)(C)C [6m, Tert‐Butyl(R)‐2‐((5‐(((Z)‐5‐(((R)‐1‐(4‐Fluorophenyl)Ethyl)Carbamoyl)‐2‐Oxoindolin‐3‐Ylidene)Methyl)‐2,4‐Dimethyl‐1H‐Pyrrol‐3‐Yl)Carbamoyl)Piperidine‐1‐Carboxylate] |  | 2.5 ± 0.4 µM | 1.2 ± 0.4 µM | 2 fold | 0.5 ± 0.1 µM |  |  |
| Cc1[nH]c(/C=C2\C(=O)Nc3ccc(C(=O)N[C@H](C)c4ccc(F)cc4)cc32)c(C)c1NC(=O)[C@@H]1CCCCN1C(=O)OC(C)(C)C [6n, Tert‐Butyl(S)‐2‐((5‐(((Z)‐5‐(((R)‐1‐(4‐Fluorophenyl)Ethyl)Carbamoyl)‐2‐Oxoindolin‐3‐Ylidene)Methyl)‐2,4‐Dimethyl‐1H‐Pyrrol‐3‐Yl)Carbamoyl)Piperidine‐1‐Carboxylate] | 37 fold | 0.9 ± 0.8 µM | 100 ± 70 µM | 3 fold | 33 ± 6 µM |  |  |
| Cc1[nH]c(/C=C2\C(=O)Nc3ccc(C(=O)N[C@H](C)c4ccc(F)cc4)cc32)c(C)c1NC(=O)[C@H]1CCCN(C(=O)OC(C)(C)C)C1 [6o, Tert‐Butyl(S)‐3‐((5‐(((Z)‐5‐(((R)‐1‐(4‐Fluorophenyl)Ethyl)Carbamoyl)‐2‐Oxoindolin‐3‐Ylidene)Methyl)‐2,4‐Dimethyl‐1H‐Pyrrol‐3‐Yl)Carbamoyl)Piperidine‐1‐Carboxylate] | 1 fold | 0.15 ± 0.06 µM | 6.2 ± 3 µM | 66 fold | 0.094 ± 0.01 µM |  |  |
| Cc1[nH]c(/C=C2\C(=O)Nc3ccc(C(=O)N[C@H](C)c4ccc(F)cc4)cc32)c(C)c1NC(=O)[C@@H]1CCCN(C(=O)OC(C)(C)C)C1 [6p, Tert‐Butyl(R)‐3‐((5‐(((Z)‐5‐(((R)‐1‐(4‐Fluorophenyl)Ethyl)Carbamoyl)‐2‐Oxoindolin‐3‐Ylidene)Methyl)‐2,4‐Dimethyl‐1H‐Pyrrol‐3‐Yl)Carbamoyl)Piperidine‐1‐Carboxylate] | 1 fold | 0.34 ± 0.3 µM | 610 ± 450 µM | 1500 fold | 0.41 ± 0.1 µM | over 1500 fold |  |
| Cc1[nH]c(/C=C2\C(=O)Nc3ccc(C(=O)N[C@H](C)c4ccc(F)cc4)cc32)c(C)c1NC(=O)[C@H]1CCCNC1 [6q, (Z)‐3‐((3,5‐Dimethyl‐4‐((S)‐Piperidine‐3‐Carboxamido)‐1H‐Pyrrol‐2‐Yl)Methylene)‐N‐((R)‐1‐(4‐Fluorophenyl)Ethyl)‐2‐Oxoindoline‐5‐Carboxamide] | 2 fold | 0.016 ± 0.003 µM | 0.11 ± 0.02 µM | 4 fold | 0.03 ± 0.02 µM |  |  |
| Cc1[nH]c(/C=C2\C(=O)Nc3ccc(C(=O)N[C@H](C)c4ccc(F)cc4)cc32)c(C)c1NC(=O)[C@@H]1CCCNC1 [6r, (Z)‐3‐((3,5‐Dimethyl‐4‐((R)‐Piperidine‐3‐Carboxamido)‐1H‐Pyrrol‐2‐Yl)Methylene)‐N‐((R)‐1‐(4‐Fluorophenyl)Ethyl)‐2‐Oxoindoline‐5‐Carboxamide] | 1 fold | 0.06 ± 0.02 µM | 0.62 ± 0.3 µM | 20 fold | 0.03 ± 0.002 µM |  |  |
| Cc1[nH]c(/C=C2\C(=O)Nc3ccc(C(=O)N[C@H](C)c4ccc(F)cc4)cc32)c(C)c1NC(=O)[C@H]1CN(C(=O)OC(C)(C)C)CCN1 [6s, Tert‐Butyl(R)‐3‐((5‐(((Z)‐5‐(((R)‐1‐(4‐Fluorophenyl)Ethyl)Carbamoyl)‐2‐Oxoindolin‐3‐Ylidene)Methyl)‐2,4‐Dimethyl‐1H‐Pyrrol‐3‐Yl)Carbamoyl)Piperazine‐1‐Carboxylate] | 1 fold | 0.06 ± 0.02 µM | 35 ± 9.4 µM | 430 fold | 0.081 ± 0.01 µM |  |  |
| Cc1[nH]c(/C=C2\C(=O)Nc3ccc(C(=O)N[C@H](C)c4ccc(F)cc4)cc32)c(C)c1NC(=O)[C@@H]1CN(C(=O)OC(C)(C)C)CCN1 [6t, Tert‐Butyl(S)‐3‐((5‐(((Z)‐5‐(((R)‐1‐(4‐Fluorophenyl)Ethyl)Carbamoyl)‐2‐Oxoindolin‐3‐Ylidene)Methyl)‐2,4‐Dimethyl‐1H‐Pyrrol‐3‐Yl)Carbamoyl)Piperazine‐1‐Carboxylate] | 7 fold | 0.09 µM | > 1000 µM | >1600 fold | 0.6 ± 0.1 µM |  |  |
| Cc1[nH]c(/C=C2\C(=O)Nc3ccc(C(=O)N[C@H](C)c4ccc(F)cc4)cc32)c(C)c1NC(=O)[C@H]1CNCCN1 [6u, (Z)‐3‐((3,5‐Dimethyl‐4‐((R)‐Piperazine‐2‐Carboxamido)‐1 H‐Pyrrol‐2‐Yl)Methylene)‐N‐((R)‐1‐(4‐Fluorophenyl)Ethyl)‐2‐Oxoindoline‐5‐Carboxamide] |  | 0.05 µM | 0.21 ± 0.1 µM | 15 fold | 0.014 ± 0.001 µM |  |  |
| Cc1[nH]c(/C=C2\C(=O)Nc3ccc(C(=O)N[C@H](C)c4ccc(F)cc4)cc32)c(C)c1NC(=O)[C@@H]1CNCCN1 [6v, (Z)‐3‐((3,5‐Dimethyl‐4‐((S)‐Piperazine‐2‐Carboxamido)‐1H‐Pyrrol‐2‐Yl)Methylene)‐N‐((R)‐1‐(4‐Fluorophenyl)Ethyl)‐2‐Oxoindoline‐5‐Carboxamide] | 1 fold | 0.026 ± 0.02 µM | 0.19 ± 0.1 µM | 10 fold | 0.016 ± 0.0005 µM |  |  |
| Cc1[nH]c(/C=C2\C(=O)Nc3ccc(C(=O)N[C@H](C)c4ccc(F)cc4)cc32)c(C)c1NC(=O)CCl [compound 1] |  |  |  |  |  |  | 1.2 µM |

Reference: paper PMC12530842, “Potent, Selective, and Drug‐Like G Protein‐Coupled Receptor Kinase 5 and 6 Inhibitors: Design, Synthesis, and X‐Ray Structural Studies” (Chemmedchem, 2025)
